Like-named read-outs stand apart in the source and are kept apart here.
Assays:
[1] = target: FLuc-C-HiBiT (firefly luciferase) (Photinus pyralis, UniProt P08659, form not given/L550V); experiment: SDR assay, FLuc-C-HiBiT; conditions: SDR max. response, clade S
[2] = target: P. pyralis FLuc (Photinus pyralis, UniProt P08659); experiment: FLuc enzymatic luminescence assay, P. pyralis FLuc; assay type: biochemical; conditions: FLuc enzymatic assay; for IC50: read-out: IC50 or SDR50 (mM) FLuc E
How it was run: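 Runs with and without 10 µM ATP: compounds were pre-incubated with FLuc (1–10 nM, PBS pH 7.4) at ambient temperature, light-protected, for 30–60 min. Luminescence was imaged 5 min after adding 10 µM D-luciferin (final). Inhibition was scaled between DMSO neutral and no-enzyme controls.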

[3] = target: T1, FLuc-C-HiBiT (Photinus pyralis, UniProt P08659); experiment: biochemical; conditions: enzyme activity, 10 uM ATP; read-out: IC50 or SDR50 (mM) / FLuc E
T1 construct: firefly luciferase with C-terminal HiBiT tag, E. coli expressed
T1 sequence (P08659 whole entry, looked up): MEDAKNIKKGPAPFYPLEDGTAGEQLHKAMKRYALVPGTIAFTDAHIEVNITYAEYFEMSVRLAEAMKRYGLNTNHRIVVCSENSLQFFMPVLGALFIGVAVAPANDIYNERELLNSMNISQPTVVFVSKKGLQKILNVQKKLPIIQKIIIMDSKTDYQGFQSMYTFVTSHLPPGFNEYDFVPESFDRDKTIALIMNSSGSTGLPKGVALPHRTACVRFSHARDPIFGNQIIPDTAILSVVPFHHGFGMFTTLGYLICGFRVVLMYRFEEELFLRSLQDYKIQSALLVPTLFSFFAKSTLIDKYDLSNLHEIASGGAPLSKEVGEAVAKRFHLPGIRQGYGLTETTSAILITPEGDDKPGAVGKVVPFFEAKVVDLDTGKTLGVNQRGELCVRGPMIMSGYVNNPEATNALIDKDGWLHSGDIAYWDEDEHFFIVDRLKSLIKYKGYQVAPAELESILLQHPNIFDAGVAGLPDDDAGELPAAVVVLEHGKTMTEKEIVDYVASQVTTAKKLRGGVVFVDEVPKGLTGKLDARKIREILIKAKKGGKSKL

[4] = target: T2, NLuc (Oplophorus gracilirostris, UniProt Q9GV45, A31E/A60N/A81I/F95D/I117V/K70R/L54V/L99Q/M102K/N193R/P142E/Q151K/Q38R/Q45L/V71I/Y165I); assay type: biochemical; conditions: - ATP
T2 construct: His tag (inferred from IMAC purification); made in house; host or cells: E. coli
T2 sequence (Q9GV45 other isoform, or with tags, fused parts or gaps with the stated changes): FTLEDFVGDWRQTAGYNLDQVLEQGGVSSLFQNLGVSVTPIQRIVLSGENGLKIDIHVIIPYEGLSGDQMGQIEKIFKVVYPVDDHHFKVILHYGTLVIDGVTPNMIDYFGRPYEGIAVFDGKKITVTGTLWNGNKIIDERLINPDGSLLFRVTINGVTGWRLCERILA
How it was run: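 Test compounds added to 1 nM NLuc in PBS with 0.05% IGEPAL, ± ATP. Nano-Glo reagent added and incubated 10 min before luminescence read.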

[5] = target: FLuc-C-NLuc (firefly luciferase) (Photinus pyralis, UniProt P08659, form not given/L550V); experiment: SDR assay, FLuc-C-NLuc; conditions: - ATP
FLuc-C-NLuc (firefly luciferase), sequence (P08659 2-550 L550V, form open): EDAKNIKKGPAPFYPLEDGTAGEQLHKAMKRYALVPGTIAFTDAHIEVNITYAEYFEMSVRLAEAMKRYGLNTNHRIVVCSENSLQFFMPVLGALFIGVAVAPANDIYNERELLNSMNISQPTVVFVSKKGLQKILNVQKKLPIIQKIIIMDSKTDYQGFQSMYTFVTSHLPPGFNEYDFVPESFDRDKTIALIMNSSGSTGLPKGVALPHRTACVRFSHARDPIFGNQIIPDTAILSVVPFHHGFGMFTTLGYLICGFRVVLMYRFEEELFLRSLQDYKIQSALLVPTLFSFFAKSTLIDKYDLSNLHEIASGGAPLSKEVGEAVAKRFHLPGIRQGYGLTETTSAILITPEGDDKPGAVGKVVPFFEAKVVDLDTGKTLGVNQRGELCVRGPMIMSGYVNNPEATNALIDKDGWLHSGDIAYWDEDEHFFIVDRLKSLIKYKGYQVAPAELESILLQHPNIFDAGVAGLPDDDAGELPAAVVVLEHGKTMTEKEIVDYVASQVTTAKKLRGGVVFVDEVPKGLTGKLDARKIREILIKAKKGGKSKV

P. pyralis FLuc, sequence (P08659 whole entry): as the sequence (P08659 whole entry, looked up) above
FLuc-C-HiBiT (firefly luciferase), sequence (P08659 2-550 L550V, form open): as the sequence (P08659 2-550 L550V, form open) above

| Compound | % Activity (max response, + ATP) [1] | % Activity (max response, - ATP) [1] | pIC50 or pSDR50 FLuc E [2] | Efficacy (%) FLuc E ([2]; Clade S follow-up) | IC50 [2] | IC50 [3] | Efficacy (%) NLuc (- ATP) [4] | Efficacy (%) FLuc-C-NLuc SDR (-ATP) [5] | pIC50 or pSDR50 FLuc E ([2]; Clade S follow-up) | IC50 ([2]; Clade S follow-up) |
| --- | --- | --- | --- | --- | --- | --- | --- | --- | --- | --- |
| CC1CCC(NC(=O)C2CCN(C(=O)c3ncn4c3COC(c3ccccc3)C4)CC2)CC1 (stereo not drawn) [NCGC00449768-01] | 387.83% | 0.00% | 5.71 | -93.28% | 0.00197 mM | 0.00248 mM | 0.00% | 0.00% | – | – |
| CCCCNC(=O)C1CCN(C(=O)c2ncn3c2COC(c2ccccc2)C3)CC1 (stereo not drawn) [NCGC00449772-01] | 357.97% | 0.00% | 5.11 | -88.46% | 0.00784 mM | 0.00624 mM | 0.00% | 0.00% | – | – |
| COc1ccccc1CNC(=O)C1CCN(C(=O)c2ncn3c2COC(c2ccccc2)C3)CC1 (stereo not drawn) [NCGC00449776-01] | 209.84% | 0.00% | 5.66 | -78.77% | 0.00221 mM | 0.00624 mM | 0.00% | 0.00% | – | – |
| CCOc1ccccc1CNC(=O)C1CCN(C(=O)c2ncn3c2COC(c2ccccc2)C3)CC1 (stereo not drawn) [NCGC00449779-01] | 223.68% | 0.00% | 5.21 | -109.28% | 0.00623 mM | 0.00313 mM | 0.00% | 0.00% | – | – |
| CCOc1cccc(CNC(=O)C2CCN(C(=O)c3ncn4c3COC(c3ccccc3)C4)CC2)c1 (stereo not drawn) [NCGC00449780-01] | 197.04% | 0.00% | 4.96 | -78.48% | 0.0111 mM | 0.00785 mM | 0.00% | 0.00% | – | – |
| Cc1ccc(C2Cn3cnc(C(=O)N4CCC(C(=O)NCc5ccccc5C)CC4)c3CO2)cc1 (stereo not drawn) [NCGC00449898-01] | 110.64% | 0.00% | – | -44.97% | – | – | 0.00% | 0.00% | 4.96 | 0.0111 mM |
| Cc1ccc(C2Cn3cnc(C(=O)N4CCC(C(=O)NCc5cccc(F)c5)CC4)c3CO2)cc1 (stereo not drawn) [NCGC00449899-01] | 60.19% | 0.00% | – | -43.90% | – | – | 0.00% | 0.00% | 5.01 | 0.00988 mM |
| Cc1ccc(C2Cn3cnc(C(=O)N4CCC(C(=O)NCc5cc(F)ccc5F)CC4)c3CO2)cc1 (stereo not drawn) [NCGC00449900-01] | 59.08% | 0.00% | – | -40.44% | – | – | 0.00% | 0.00% | 4.96 | 0.0111 mM |
| Cc1ccc(NC(=O)C2CCN(C(=O)c3ncn4c3COC(c3ccccc3)C4)CC2)cc1C (stereo not drawn) [NCGC00449904-01] | 306.70% | 0.00% | – | -72.15% | – | – | 0.00% | 0.00% | 5.01 | 0.00988 mM |
| CCc1cccc(NC(=O)C2CCN(C(=O)c3ncn4c3COC(c3ccccc3)C4)CC2)c1 (stereo not drawn) [NCGC00449906-01] | 357.78% | 0.00% | – | -98.95% | – | – | 0.00% | 0.00% | 5.76 | 0.00176 mM |
| CCc1ccc(NC(=O)C2CCN(C(=O)c3ncn4c3COC(c3ccccc3)C4)CC2)cc1 (stereo not drawn) [NCGC00449907-01] | 288.22% | 0.00% | – | -99.55% | – | – | 0.00% | 0.00% | 5.16 | 0.00699 mM |
| O=C(Nc1ccccc1)C1CCN(C(=O)c2ncn3c2COC(c2ccc(F)cc2)C3)CC1 (stereo not drawn) [NCGC00449920-01] | 29.50% | 0.00% | – | -13.92% | – | – | 0.00% | 0.00% | – | – |
| CCc1ccc(NC(=O)C2CCN(C(=O)c3ncn4c3COC(c3ccc(F)cc3)C4)CC2)cc1 (stereo not drawn) [NCGC00449925-01] | 47.34% | 0.00% | – | -32.74% | – | – | 0.00% | 0.00% | 4.96 | 0.0111 mM |
| CC(C)c1ccc(NC(=O)C2CCN(C(=O)c3ncn4c3COC(c3ccc(F)cc3)C4)CC2)cc1 (stereo not drawn) [NCGC00449927-01] | 35.93% | 0.00% | – | -23.88% | – | – | 0.00% | 0.00% | 4.86 | 0.0139 mM |
| Cc1ccc(NC(=O)C2CCN(C(=O)c3ncn4c3COC(c3ccc(F)cc3)C4)CC2)c(C)c1 (stereo not drawn) [NCGC00449930-01] | 67.53% | 0.00% | – | -45.61% | – | – | 0.00% | 0.00% | 4.96 | 0.0111 mM |
| O=C(Nc1ccc(F)cc1)C1CCN(C(=O)c2ncn3c2COC(c2ccc(F)cc2)C3)CC1 (stereo not drawn) [NCGC00449939-01] | 72.23% | 0.00% | – | -56.35% | – | – | 0.00% | 0.00% | 5.01 | 0.00988 mM |
| O=C(Nc1ccc(F)c(F)c1)C1CCN(C(=O)c2ncn3c2COC(c2ccc(F)cc2)C3)CC1 (stereo not drawn) [NCGC00449940-01] | 125.80% | 0.00% | – | -73.07% | – | – | 0.00% | 0.00% | 4.96 | 0.0111 mM |
| Cc1ccc(NC(=O)C2CCN(C(=O)c3ncn4c3COC(c3ccc(F)cc3)C4)CC2)c(F)c1 (stereo not drawn) [NCGC00449944-01] | 140.99% | 7.55% | – | -69.67% | – | – | 0.00% | 0.00% | 4.96 | 0.0111 mM |

Source: paper PMC12064818, “A general assay platform to study protein pharmacology using ligand-dependent structural dynamics” (Nature Communications, 2025)
